The subject of the assay is Staphylococcus aureus. Put plainly: Antibacterial activity against multidrug-resistant Staphylococcus aureus 1199B overexpressing NorA after 18 hrs. It counts as functional.

Converted amounts (≈) assume the structure as drawn.

A word on the MIC: it is the smallest concentration in the dilution series that meets the test's criterion for growth inhibition.

In turn, `CC(C)=CC[C@H]1C[C@]2(CC=C(C)C)C(=O)C(C(=O)c3ccccc3)=C(O)[C@](CC=C(C)C)(C2=O)C1(C)C` registered a minimal inhibitory concentration (MIC) of 7.3 µM (≈ 3.67 µg/mL).

As to `CCn1cc(C(=O)O)c(=O)c2cc(F)c(N3CCNCC3)cc21` [NORFLOXACIN], the MIC turned out to be 100 µM (≈ 31.9 µg/mL).

For the origin of these results see ChEMBL document CHEMBL1141428, “Polyisoprenylated benzoylphloroglucinol derivatives from Hypericum sampsonii” (2007).
